From ChEMBL document CHEMBL5241130, “Integrating a phenotypic screening with a structural simplification strategy to identify 4-phenoxy-quinoline derivatives to potently disrupt the mitotic localization of Aurora kinase B” (Bioorg Med Chem, 2023)

How the values were obtained:
Type in all cases: cell-based
[1] = target: Aurora kinase B (Homo sapiens) (UniProt Q96GD4); assay: Disruption of mitotic localization of AURKB in human RPE-MYC H2B-GFP cells assessed as induction of polyploidy by fluorescence high content cell imaging analysis
[2] = target: Aurora kinase B (Homo sapiens) (UniProt Q96GD4); assay: Disruption of mitotic localization of AURKB in human RPE-MYC H2B-GFP cells assessed as induction of mitotic arrest measured after 24 hrs by fluorescence high content cell imaging analysis
[3] = target: Aurora kinase B (Homo sapiens) (UniProt Q96GD4); assay: Disruption of mitotic localization of AURKB in human RPE-MYC H2B-GFP cells assessed as proportion of polyploid cells in fully attached cell population at 40 uM measured after 72 hrs by fluorescence high content cell imaging analysis (Rvb <1%)
[4] = target: T1, Aurora kinase A (Homo sapiens) (UniProt O14965); assay: Inhibition of AURKA in human RPE-MYC H2B-GFP cells assessed as inhibition of autophosphorylation of AURKA at Thr288 residue by measuring residual enzyme activity at 40 uM measured after 6 hrs by immunofluorescence staining analysis (reference value: 100+/-1%)
T1 sequence (whole entry): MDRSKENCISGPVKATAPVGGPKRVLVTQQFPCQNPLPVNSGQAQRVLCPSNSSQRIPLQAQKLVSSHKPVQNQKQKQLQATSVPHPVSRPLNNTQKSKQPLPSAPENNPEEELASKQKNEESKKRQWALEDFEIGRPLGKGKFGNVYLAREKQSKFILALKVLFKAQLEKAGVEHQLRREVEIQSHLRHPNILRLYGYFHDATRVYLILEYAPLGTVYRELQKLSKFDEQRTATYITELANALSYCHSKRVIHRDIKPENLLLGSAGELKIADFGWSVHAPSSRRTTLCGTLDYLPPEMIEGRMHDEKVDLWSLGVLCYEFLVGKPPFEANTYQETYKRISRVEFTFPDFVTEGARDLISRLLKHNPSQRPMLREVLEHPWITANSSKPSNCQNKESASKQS

[5] = target: Aurora kinase B (Homo sapiens) (UniProt Q96GD4); assay: Disruption of mitotic localization of AURKB in human RPE-MYC H2B-GFP cells assessed as proportion of polyploid cells in fully attached cell population at 10 uM measured after 72 hrs by fluorescence high content cell imaging analysis (Rvb <1%)
[6] = target: Aurora kinase B (Homo sapiens) (UniProt Q96GD4); assay: Disruption of mitotic localization of AURKB in human RPE-MYC H2B-GFP cells assessed as mitotic index at 10 uM measured after 6 hrs by fluorescence high content cell imaging analysis (reference value: 4.7+/-0.4%)
[7] = target: Aurora kinase B (Homo sapiens) (UniProt Q96GD4); assay: Inhibition of AURKB in human RPE-MYC H2B-GFP cells assessed as inhibition of histone H3 phosphorylation at Ser10 residue by measuring residual enzyme activity at 10 uM measured after 6 hrs by immunofluorescence staining analysis (reference value: 100 +/-9%)
[8] = target: T1, Aurora kinase A (Homo sapiens); assay: Inhibition of AURKA in human RPE-MYC H2B-GFP cells assessed as inhibition of autophosphorylation of AURKA at Thr288 residue by measuring residual enzyme activity at 20 uM measured after 6 hrs by immunofluorescence staining analysis (reference value: 100 +/-1%)
[9] = target: Aurora kinase B (Homo sapiens) (UniProt Q96GD4); assay: Disruption of mitotic localization of AURKB in human RPE-MYC H2B-GFP cells assessed as mitotic index at 20 uM measured after 6 hrs by fluorescence high content cell imaging analysis (reference value: 4.7+/-0.4%)
[10] = target: Aurora kinase B (Homo sapiens) (UniProt Q96GD4); assay: Inhibition of AURKB in human RPE-MYC H2B-GFP cells assessed as inhibition of histone H3 phosphorylation at Ser10 residue by measuring residual enzyme activity at 40 uM measured after 6 hrs by immunofluorescence staining analysis (reference value: 100 +/-9%)
[11] = target: Aurora kinase B (Homo sapiens) (UniProt Q96GD4); assay: Disruption of mitotic localization of AURKB in human RPE-MYC H2B-GFP cells assessed as mitotic index at 40 uM measured after 6 hrs by fluorescence high content cell imaging analysis (reference value: 4.7+/-0.4%)
[12] = target: Aurora kinase B (Homo sapiens) (UniProt Q96GD4); assay: Disruption of mitotic localization of AURKB in human RPE-MYC H2B-GFP cells assessed as proportion of polyploid cells in fully attached cell population at 20 uM measured after 72 hrs by fluorescence high content cell imaging analysis (Rvb <1%)
[13] = target: Aurora kinase B (Homo sapiens) (UniProt Q96GD4); assay: Inhibition of AURKB in human RPE-MYC H2B-GFP cells assessed as inhibition of histone H3 phosphorylation at Ser10 residue by measuring residual enzyme activity at 20 uM measured after 6 hrs by immunofluorescence staining analysis (reference value: 100 +/-9%)
[14] = target: T1, Aurora kinase A (Homo sapiens); assay: Inhibition of AURKA in human RPE-MYC H2B-GFP cells assessed as inhibition of autophosphorylation of AURKA at Thr288 residue by measuring residual enzyme activity at 10 uM measured after 6 hrs by immunofluorescence staining analysis (reference value: 100 +/-1%)

Aurora kinase B (Homo sapiens), sequence (Q96GD4 whole entry): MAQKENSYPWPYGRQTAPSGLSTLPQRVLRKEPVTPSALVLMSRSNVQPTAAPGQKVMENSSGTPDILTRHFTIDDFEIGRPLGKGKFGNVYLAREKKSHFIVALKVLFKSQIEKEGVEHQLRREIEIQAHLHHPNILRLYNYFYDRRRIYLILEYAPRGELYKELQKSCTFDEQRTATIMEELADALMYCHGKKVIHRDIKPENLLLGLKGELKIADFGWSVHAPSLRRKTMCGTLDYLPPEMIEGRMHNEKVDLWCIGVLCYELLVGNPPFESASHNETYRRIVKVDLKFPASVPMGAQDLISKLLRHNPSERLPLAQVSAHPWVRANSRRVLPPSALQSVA

`Nc1ccc(Oc2ccnc3ccccc23)cc1` was tested, and the MEC [1] was 10 µM, the MEC [2] was 10 µM and the Activity [3] was 100%. For the same molecule, the Activity [4] was 115%, the Activity [5] was 100% and the Activity [6] was 15.6%. For the same molecule, the Activity [7] was 104%, the Activity [8] was 109% and the Activity [9] was 16.2%. For the same molecule, the Activity [10] was 105%, the Activity [11] was 15.6% and the Activity [12] was 100%. For the same molecule, the Activity [13] was 102% and the Activity [14] was 106%.
